Tested on: Peronospora brassicae (cabbage mildew)
Assay: Effect of L-carvone on cabbage mildew (infected cabbages treated after inoculation)
Type: in vivo
Conditions: cabbages infected with Peronospora brassicae, treated rapidly after inoculation; L-carvone at a minimal concentration of 1%; 21 days; FIG. 1
From the text: Cabbages were infected with Peronospora brassicae (cabbage mildew) then treated rapidly after inoculation with L-carvone or Aliette.

C=C(C)C1CC=C(C)C(=O)C1 [L-carvone, 2-methyl-5-(1-methylethenyl)-2-cyclohexen-1-one]
control of the infection by cabbage mildew: able to control the infection effectively for 21 days

Source: patent publication US20110008475A1, “USE OF AN EMULSION OF MINT OIL OR OF L-CARVONE FOR THE FUNGICIDAL TREATMENT OF FRUIT, VEGETABLES OR PLANTS” (priority 2007, published 2011)
